Assay results from patent US20260137754A1, “APPLICATION OF A COMBINATION DRUG IN THE TREATMENT OF PATHOGENIC BACTERIAL PERSISTENT INFECTIONS” (priority 2023, published 2026).
Converted amounts (≈) assume the structure as drawn. “And” between values parts separate entries of the source, which are not always exact repeats. Equal values may be shown once. Read-outs that look alike come from different tables or passages of the source.

Columns and labels:
[1] = system: wild-type E. coli BW25113; assay: Minimum inhibitory concentration (MIC); assay type: cell-based, Escherichia coli
[2] = system: wild-type E. coli BW25113; assay: Survival / persistence level (CFU) of stationary-phase culture diluted 1:20 into fresh LB with antibiotic; assay type: cell-based, Escherichia coli; conditions: for persistence survival level / persistence rate: monotherapy 10 hours, kanamycin 3 MIC, ciprofloxacin 20 MIC, ampicillin 20 MIC, polymyxin B 3 MIC
Procedure: (§1) The proportion of persisting cells in bacterial cultures typically reaches higher levels during the nutrient-depleted stationary phase. To investigate the persistence capacity of the model bacterium Escherichia coli(E. coli) against most bactericidal antibiotics, the standard BW25113 strain with E. coli K12 background was cultured at 37° C. in commercially available LB liquid medium until reaching the stationary phase. The culture was then inoculated at a 1:20 dilution into fresh LB liquid medium containing antibiotics at multiple dilutions of the minimum inhibitory concentration (MIC). Samples were collected after different treatment durations, and residual antibiotics were removed through two centrifugations. After tenfold serial dilution in physiological saline, the cultures were plated on LB agar plates without antibiotics. Survival colony-forming units (CFUs) were counted after two days of incubation, with initial CFU values before antibiotic addition serving as controls to calculate bacterial survival rates and persistence levels using conventional experimental methods. Testing for other bacteria followed the same protocol.
The culture was then incubated at 37° C. with shaking at 160 rpm for 10 hours. […] Each measurement was obtained from at least three independent experiments, with error bars representing the mean±standard deviation.

[3] = system: E. coli hipA7 strain; conditions: for survival rate / viability: monotherapy 10 hours, kanamycin 3 MIC, ciprofloxacin 20 MIC, ampicillin 20 MIC, polymyxin B 3 MIC, mitomycin C 3 MIC
Procedure: as §1
(§2) Each measurement was obtained from at least three independent experiments, with error bars representing the mean±standard deviation.
as §2, §2

[4] = cited from earlier work
[5] = system: E. coli hipA7 cells; assay: Cell membrane damage, propidium iodide (PI) staining; assay type: cell-based, Escherichia coli; conditions: single drug
Procedure: Samples were incubated at 37° C. with 160 rpm shaking for 8 hours.
Parallel samples were treated with corresponding concentrations of individual drugs. Samples were collected at 0, 2, and 4 hours, with the addition of 5 μM PI dye 10 minutes prior to each collection time point. After washing with saline to remove antibiotics and extracellular dyes, cellular fluorescence intensity was analyzed by flow cytometry, with 100,000 cells analyzed per sample. The results from three independent experiments were basically the same. Representative data from one of the experiments were selected for plotting.

[6] = system: E. coli hipA7 cells; assay: Membrane potential, DiSC3(5) dye, flow cytometry; assay type: cell-based, Escherichia coli; conditions: 0.9 μg/mL polymyxin B, 20 μg/mL kanamycin, combined or alone; up to 8 hours
Procedure: As represented by the combination antibiotic containing 0.9 μg/mL polymyxin B and 20 μg/mL kanamycin, the cell membrane damage in hipA7 cultures during stress-induced antibiotic killing was assessed. […] Samples were incubated at 37° C. with 160 rpm shaking for 8 hours. During sampling, 2.5 μM DiSC3 (5) was added in the first 10 minutes of each time point, followed by washing to remove the drugs and unbound dye. Flow cytometry was used to measure fluorescence intensity, with 100,000 cells analyzed per sample. […] Representative data from one of the experiments were selected for plotting.

[7] = Escherichia coli, BW25113, read-out: MIC
[8] = clinical dosage guideline 2 mg/kg

Molecule	MIC [1, 7] [µg/mL]	persistence survival level / persistence rate [2] [%]	survival rate / viability [3]	MIC [1] [µg/mL]	further results
CC1(C)S[C@@H]2[C@H](NC(=O)[C@H](N)c3ccccc3)C(=O)N2[C@H]1C(=O)O [ampicillin]	6 (≈ 17.2 µM)	0.001	Approximately 10%		
O=C(O)c1cn(C2CC2)c2cc(N3CCNCC3)c(F)cc2c1=O [ciprofloxacin]	0.03 (≈ 0.0905 µM)	0.001	Approximately 10%		
NC[C@H]1O[C@H](O[C@H]2[C@H](O)[C@@H](O[C@H]3O[C@H](CO)[C@@H](O)[C@H](N)[C@H]3O)[C@H](N)C[C@@H]2N)[C@H](O)[C@@H](O)[C@@H]1O [kanamycin]	8 (≈ 16.5 µM)	0.001	10%		viability decreased ([2]; kanamycin 24 μg/mL (3 MIC), 10 hours): 100,000 fold; survival rate, times higher than that of wild-type E. coli ([3]; 3 MIC kanamycin, 10 hours): 10,000 times; peak serum concentration ([4]; clinical): 20 µg/mL and 18 to 20 µg/mL
CO[C@@]12[C@H](COC(N)=O)C3=C(C(=O)C(C)=C(N)C3=O)N1C[C@@H]1N[C@@H]12 [mitomycin C]				0.8 (≈ 2.39 µM)	
polymyxin					average serum concentration [4, 8]: approximately 2.8 μg/mL; serum concentration range [4, 8]: 680 to 4880 ng/mL
polymyxin B		0.001	Approximately 10%	0.3	PI fluorescence (membrane disruption) ([5]; after 2 hours): majority of cells showed no increase in PI fluorescence; PI fluorescence (membrane disruption) ([5]; after 4 hours): only a minimal number of cells exhibiting detectable signals; DiSC3(5) fluorescence signal (membrane potential) [6]: no significant enhancement of DiSC3(5) fluorescence signal
